Laboratory results as given in US20100029654A1, “CARDIOVASCULAR COMPOSITIONS AND USE OF THE SAME FOR THE TREATMENT OF ALZHEIMER'S DISEASE” (MOUNT SINAI SCHOOL OF MEDICINE, priority 2006, published 2010).
Where a name gives a salt, the structure may show the parent alone. Read-outs that look alike come from different tables or passages of the source.

What was measured:
Aβ1-40 = Aβ1-40 content in conditioned medium of primary cortico-hippocampal neuron cultures from Tg2576 mice (ELISA; primary and secondary dose-response screening); format: cell-based, mouse; details: for activity at 100 µM: Mus musculus, Neuron, 24 h, drug 100 μM, read-out: Ab1-40 (% of ctl); for reduced Aβ1-40: <85% of ctl
Procedure: (§1) Potential Aβ-lowering activity was assessed for 150 commercially available cardiovascular drugs using primary cortico-hippocampal neuron cultures derived from embryonic Tg2576 (El 6). […] All cardiovascular reagents were obtained from MicroSource Discovery Systems Inc (Gaylordsville, Conn.). […] Individual cardiovascular agents were applied directly to the culture medium (final 1% DMSO in the culture media). In control studies, parallel Tg2576 primary neuron cultures were treated with vehicle (1% DMSO) alone. The influence of drug treatments in Aβ content in the conditioned medium in treated cultures was assessed by assessing steady state levels of Aβ1-40 and Aβ1-42 in the culture media 24 hours after treatment.
(§2) Embryonic brain tissue was mechanically triturated and centrifuged. Neurons were seeded onto poly-D-lysine-coated 96-well plates at 1.0×10^5 cells per well and cultured in the serum-free chemically-defined medium Neurobasal, supplemented with 2% B27, 0.5 mM L-glutamine and 1% penicillin-streptomycin (Gibco-BRL).
(§3) For primary screening, cultured neurons were treated with 100 μM of drug in duplicates for 16 hours; all drugs were obtained in stock from MicroSource Discovery Systems Inc (Gaylordsville, Conn.). Conditioned medium was collected for Aβ detection using commercially available ELISA kits (BioSource). […] Primary neurons prepared in 96-well plates were treated with 0.1 μM, 1 μM, 10 μM, 50 μM, and 100 μM of each drug in duplicate for ˜16 hours and conditioned medium was collected for Aβ detection.

Aβ1-42 = Aβ1-42 content in conditioned medium of primary cortico-hippocampal neuron cultures from Tg2576 mice (ELISA; primary and secondary dose-response screening); format: cell-based, mouse; details: for activity at 100 µM: Mus musculus, Neuron, 24 h, drug 100 μM, read-out: Ab1-42 (% of ctl); for reducing Aβ1-42: <85% of ctl
Procedure: as §1, §2, §3

[1] = tested on: primary cortico-hippocampal neuron cultures; assay: MTT in primary screening
[2] = tested on: primary cortico-hippocampal neuron cultures; assay: lactate dehydrogenase (LDH) activity assay in parallel neuron cultures
Procedure: For in vitro treatments drugs available from “The Spectrum Collection” in stocks of 10 mM in DMSO were applied directly to cultures to the desired concentrations (final 1% DMSO); control primary neuron cultures from Tg2576 embryos were treated with vehicle resulting in a final 1% DMSO.
Cell viability was assessed using a commercial available LDH assay kit according to the manufacture's instruction (Promega).

[3] = Primary Screening, table sorted by Aβ1-40
[4] = primary screening, Tg2576 neuron cultures, table sorted by Aβ1-42
[5] = primary screening, table sorted by Aβ1-42

| Compound | activity at 100 µM (Aβ1-40; [3]) [%] | activity at 100 µM (Aβ1-40; [4]) [%] | activity at 100 µM (Aβ1-42; [3]) [%] | activity at 100 µM (Aβ1-42; [4]) [%] | MTT (% of ctl) [1, 3] | MTT (% of ctl) [1, 5] | LDH (% of ctl) [2, 3] | LDH (% of ctl) [2, 5] | reduced Aβ1-40 (Aβ1-40; primary screening) | reducing Aβ1-42 (Aβ1-42; primary screening) |
| --- | --- | --- | --- | --- | --- | --- | --- | --- | --- | --- |
| CC1=NS(=O)(=O)c2cc(Cl)ccc2N1 [Diazoxide] | 114 | 114 | 98.9 | 98.9 | 97.8 % of ctl | 97.8 % of ctl | 112.0 % of ctl | 112.0 % of ctl | – | – |
| O=c1oc2ccccc2c(O)c1Cc1c(O)c2ccccc2oc1=O [Dicumarol] | 51.3 | 51.3 | 54 | 54 | 97.0 % of ctl | 97.0 % of ctl | 93.3 % of ctl | 93.3 % of ctl | reduced Aβ1-40 | useful in reducing Aβ1-42 |
| COc1ccc([C@@H]2Sc3ccccc3N(CCN(C)C)C(=O)[C@@H]2OC(C)=O)cc1 [Diltiazem Hydrochloride] | 108 | 108 | 98.9 | 98.9 | 97.8 % of ctl | 97.8 % of ctl | 96.1 % of ctl | 96.1 % of ctl | – | – |
| CC(CCc1ccc(O)cc1)NCCc1ccc(O)c(O)c1 (centres unmarked) [Dobutamine Hydrochloride] | 90.1 | 90.1 | 103 | 103 | 99.5 % of ctl | 99.5 % of ctl | 103.1 % of ctl | 103.1 % of ctl | – | – |
| O=c1oc2c(O)c(O)cc3c(=O)oc4c(O)c(O)cc1c4c23 [Ellagic Acid] | 96.6 | 96.6 | 94 | 94 | 85.2 % of ctl | 85.2 % of ctl | 109.2 % of ctl | 109.2 % of ctl | – | – |
| CCOC(=O)[C@H](CCc1ccccc1)N[C@@H](C)C(=O)N1CCC[C@H]1C(=O)O [Enalapril Maleate] | 101 | 101 | 97.6 | 97.6 | 126.4 % of ctl | 126.4 % of ctl | 118.9 % of ctl | 118.9 % of ctl | – | – |
| CCC(C(N)=O)c1ccccc1 (centres unmarked) [Fenbutyramide] | 91.6 | 91.6 | 96.3 | 96.3 | 108.6 % of ctl | 108.6 % of ctl | 135.0 % of ctl | 135.0 % of ctl | – | – |
| CC(C)OC(=O)C(C)(C)Oc1ccc(C(=O)c2ccc(Cl)cc2)cc1 [Fenofibrate] | 13.9 | 13.9 | 77.7 | 77.7 | 97.5 % of ctl | 97.5 % of ctl | 140.0 % of ctl | 140.0 % of ctl | – | – |
| Fc1ccc(C(c2ccc(F)cc2)N2CCN(C/C=C/c3ccccc3)CC2)cc1 [Flunarizine Hydrochloride] | 42.1 | 42.1 | 53.3 | 53.3 | 59.4 % of ctl | 59.4 % of ctl | 120.4 % of ctl | 120.4 % of ctl | reduced Aβ1-40 | useful in reducing Aβ1-42 |
| CCC(=O)O[C@@H](O[P@](=O)(CCCCc1ccccc1)CC(=O)N1C[C@H](C2CCCCC2)C[C@H]1C(=O)O)C(C)C [Fosinopril Sodium] | 94.7 | 94.7 | 95 | 95 | 101.4 % of ctl | 101.4 % of ctl | 75.6 % of ctl | 75.6 % of ctl | – | – |
| NS(=O)(=O)c1cc(C(=O)O)c(NCc2ccco2)cc1Cl [Furosemide] | 118 | 118 | 95.7 | 95.7 | 101.0 % of ctl | 101.0 % of ctl | 98.2 % of ctl | 98.2 % of ctl | – | – |
| CC(N)CCCC(C)(C)O (centres unmarked) [Heptaminol Hydrochloride] | 112 | 112 | 105 | 105 | 103.4 % of ctl | 103.4 % of ctl | 103.4 % of ctl | 103.4 % of ctl | – | – |
| NS(=O)(=O)c1cc2c(cc1Cl)NCNS2(=O)=O [Hydrochlorothiazide] | 89.5 | 89.5 | 116 | 116 | 102.1 % of ctl | 102.1 % of ctl | 281.1 % of ctl | 281.1 % of ctl | – | – |
| NS(=O)(=O)c1cc2c(cc1C(F)(F)F)NCNS2(=O)=O [Hydroflumethiazide] | 92.4 | 92.4 | 90.2 | 90.2 | 98.9 % of ctl | 98.9 % of ctl | 99.7 % of ctl | 99.7 % of ctl | – | – |
